Structures can show the parent of a compound that is named as a salt.
Tests used:
[1] = biological target: cdk2/cyclinE (Homo sapiens, UniProt P24941); test: Cyclin dependent kinase 2 assay (cdk2/cyclinE), 32P incorporation, filter plate; type: biochemical; conditions: retinoblastoma substrate, 12 mM ATP, 25° C., 15 minutes; read-out: Inhibition of Cdks: IC50 Cdk2/E
Experimental: (§1) Cyclin Dependent Kinase 1 and 2 Assays (cdk1/cyclinB, cdk2/cyclinA, cdk2/cyclinE)
(§2) Enzyme assays for IC50 determinations and kinetic evaluation are performed in a 96-well filter plate (Millipore MADVN6550) in a total volume of 0.1 mL of 20 mM TRIS (tris[hydroxymethyl]aminomethane), at pH 7.4, 50 mM NaCl, 1 mM dithiothreitol, 10 mM MgCl2, […] containing 0.25 μCi of [^32P]ATP, 20 ng of enzyme (either cdk1/B, cdk2/A, or cdk2E), 1 μg retinoblastoma and appropriate dilutions of the particular invention compound. All components except the ATP are added to the wells, and the plate is placed on a plate mixer for 2 minutes. The reaction is begun by addition of [^32P]ATP, and the plate is incubated at 25° C. for 15 minutes. The reaction is terminated by addition of 0.1 mL of 20% TCA. The plate is kept at 4° C. for at least 1 hour to allow the substrate to precipitate. The wells are then washed 5 times with 0.2 mL of 10% TCA and ^32P incorporation determined with a beta plate counter (Wallac Inc., Gaithersburg, Md.).

[2] = biological target: cdk2/cyclinA (Homo sapiens, UniProt P24941); test: Cyclin dependent kinase 2 assay (cdk2/cyclinA), 32P incorporation, filter plate; type: biochemical; conditions: retinoblastoma substrate, 12 mM ATP, 25° C., 15 minutes; read-out: Inhibition of Cdks: IC50 Cdk2/A
Experimental: as §1, §2

[3] = biological target: cdk1/cyclinB (Homo sapiens, UniProt P06493); test: Cyclin dependent kinase 1 assay (cdk1/cyclinB), 32P incorporation, filter plate; type: biochemical; conditions: retinoblastoma substrate, 12 mM ATP, 25° C., 15 minutes; read-out: Inhibition of Cdks: IC50 Cdk1/B
Sequence of cdk1/cyclinB (P06493 whole entry, species assumed): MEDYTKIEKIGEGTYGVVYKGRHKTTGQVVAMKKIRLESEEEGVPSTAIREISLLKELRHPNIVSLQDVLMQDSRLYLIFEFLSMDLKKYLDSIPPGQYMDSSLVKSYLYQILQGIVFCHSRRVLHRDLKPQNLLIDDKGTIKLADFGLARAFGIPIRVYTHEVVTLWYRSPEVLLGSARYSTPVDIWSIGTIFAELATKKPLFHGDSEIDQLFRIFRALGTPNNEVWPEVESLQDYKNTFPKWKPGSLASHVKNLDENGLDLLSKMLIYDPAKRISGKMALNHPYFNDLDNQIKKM
Sequence of cdk1/cyclinB (P14635 whole entry partner, species assumed): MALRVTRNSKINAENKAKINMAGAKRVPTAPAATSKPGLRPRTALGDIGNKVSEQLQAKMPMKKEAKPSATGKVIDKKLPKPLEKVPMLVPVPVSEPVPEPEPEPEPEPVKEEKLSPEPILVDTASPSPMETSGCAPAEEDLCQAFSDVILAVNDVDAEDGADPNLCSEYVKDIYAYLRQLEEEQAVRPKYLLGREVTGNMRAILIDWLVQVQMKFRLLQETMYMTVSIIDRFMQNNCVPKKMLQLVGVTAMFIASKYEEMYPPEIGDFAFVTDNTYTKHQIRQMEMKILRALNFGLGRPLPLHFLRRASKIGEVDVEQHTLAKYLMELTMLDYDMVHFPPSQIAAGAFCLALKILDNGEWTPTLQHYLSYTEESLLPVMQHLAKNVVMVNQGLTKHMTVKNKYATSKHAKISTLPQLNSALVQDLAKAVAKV
Experimental: as §1, §2

[4] = biological target: cdk4/cyclinD (Homo sapiens, UniProt P11802); test: Cyclin Dependent Kinase 4 (cdk-4) Assay, 32P incorporation, filter plate; type: biochemical; conditions: retinoblastoma substrate, 25 μM ATP, 25° C., 15 minutes; read-out: Inhibition of Cdks: IC50 Cdk4D
Sequence of cdk4/cyclinD (P11802 whole entry, species assumed): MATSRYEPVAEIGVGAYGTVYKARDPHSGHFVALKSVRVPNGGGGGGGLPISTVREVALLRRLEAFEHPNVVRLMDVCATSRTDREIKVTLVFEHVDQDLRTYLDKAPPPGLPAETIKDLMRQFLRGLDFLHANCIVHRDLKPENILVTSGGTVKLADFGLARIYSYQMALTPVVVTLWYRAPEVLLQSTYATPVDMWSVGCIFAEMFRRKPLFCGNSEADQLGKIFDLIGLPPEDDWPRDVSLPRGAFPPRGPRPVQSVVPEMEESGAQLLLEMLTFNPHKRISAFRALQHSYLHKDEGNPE
Sequence of cdk4/cyclinD (P24385 whole entry partner, species assumed): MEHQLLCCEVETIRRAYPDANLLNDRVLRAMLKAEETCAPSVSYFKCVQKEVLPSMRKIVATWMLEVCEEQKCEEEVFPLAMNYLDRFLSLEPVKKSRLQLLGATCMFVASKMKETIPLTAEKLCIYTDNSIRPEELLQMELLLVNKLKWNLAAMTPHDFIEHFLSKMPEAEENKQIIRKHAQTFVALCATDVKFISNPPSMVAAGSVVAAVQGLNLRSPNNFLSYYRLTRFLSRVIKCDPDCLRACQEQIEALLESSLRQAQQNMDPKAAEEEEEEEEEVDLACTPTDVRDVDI
Experimental: Cyclin Dependent Kinase 4 (cdk-4) Assay
Enzyme assays for IC50 determinations and kinetic evaluation are performed in 96-well filter plates (Millipore MADVN6550). The total volume is 0.1 mL containing a final concentration of 20 mM TRIS (tris[hydroxymethyl]aminomethane), at pH 7.4, 50 mM NaCl, 1 mM dithiothreitol, 10 mM MgCl2, 25 μM ATP containing 0.25 μCi of [^32P]ATP, 20 ng of cdk4, 1 μg of retinoblastoma, and appropriate dilutions of a compound of the present invention. All components except the ATP are added to the wells, and the plate is placed on a plate mixer for 2 minutes. The reaction is started by adding [^32P]ATP, and the plate is incubated at 25° C. for 15 minutes. The reaction is terminated by addition of 0.1 mL of 20% trichloroacetic acid (TCA). The plate is kept at 4° C. for at least 1 hour to allow the substrate to precipitate. The wells are then washed 5 times with 0.2 mL of 10% TCA and ^32P incorporation is determined with a beta plate counter (Wallac Inc., Gaithersburg, Md.).

melting point	IC50 [1] [nM]	IC50 [2] [nM]	IC50 [3] [nM]	IC50 [4] [nM]	Compound
198 °C (dec.)	–	–	–	–	C[C@@H]1CN(c2ccc(Nc3ncc4cc(Br)c(NC(=O)NC5CCCCC5)nc4n3)cc2)C[C@H](C)N1 (as salt: salt) [Compound 95, 1-{6-Bromo-2-[4-(cis-3,5-dimethyl-piperazin-1-yl)-phenylamino]-pyrido[2,3-d]pyrimidin-7-yl}-3-cyclohexyl-urea]
230 to 232 °C (dec.)	> 5000	> 5000	> 5000	1500	Cc1cc(NC(=O)NC(C)(C)C)nc2nc(Nc3ccc(N4CCNCC4)cc3)ncc12 [Compound 4, 1-tert-Butyl-3-[5-methyl-2-(4-piperazin-1-yl-phenylamino)-pyrido[2,3-d]pyrimidin-7-yl]-urea]
206 to 208 °C (dec.)	130	130	463	37	CC(=O)N1CCN(c2ccc(Nc3ncc4ccc(NC(=O)NC(C)(C)C)nc4n3)cc2)CC1 [Compound 5, 1-{2-[4-(4-Acetyl-piperazin-1-yl)-phenylamino]-pyrido[2,3-d]pyrimidin-7-yl}-3-tert-butyl-urea]
238 °C (dec.)	> 5000	> 5000	> 5000	2100	Cc1cc(NC(=O)NC2CCCCC2)nc2nc(Nc3ccc(N4CCNCC4)cc3)ncc12 [Compound 12, 1-Cyclohexyl-3-[5-methyl-2-(4-piperazin-1-yl-phenylamino)-pyrido[2,3-d]pyrimidin-7-yl]-urea]
220 to 222 °C	> 5000	> 5000	> 5000	> 5000	CCNC(=O)Nc1cc(C)c2cnc(Nc3ccc(N4CCNCC4)cc3)nc2n1 [Compound 28, 1-Ethyl-3-[5-methyl-2-(4-piperazin-1-yl-phenylamino)-pyrido[2,3-d]pyrimidin-7-yl]-urea]
245 °C (dec.)	475	528	911	50	C[C@@H]1CN(c2ccc(Nc3ncc4ccc(NC(=O)NC(C)(C)C)nc4n3)cc2)C[C@H](C)N1 [Compound 49, 1-tert-Butyl-3-{2-[4-(cis-3,5-dimethyl-piperazin-1-yl)-phenylamino]-pyrido[2,3-d]pyrimidin-7-yl}-urea]
228 °C (dec.)	35	22	69	7	C[C@@H]1CN(c2ccc(Nc3ncc4ccc(NC(=O)NC5CCCCC5)nc4n3)cc2)C[C@H](C)N1 [Compound 50, 1-Cyclohexyl-3-{2-[4-(cis-3,5-dimethyl-piperazin-1-yl)-phenylamino]-pyrido[2,3-d]pyrimidin-7-yl}-urea]
227 to 229 °C	126	213	472	27	C[C@@H]1CN(c2ccc(Nc3ncc4cc(F)c(NC(=O)NC5CCCCC5)nc4n3)cc2)C[C@H](C)N1 [Compound 52, 1-Cyclohexyl-3-{2-[4-(cis-3,5-dimethyl-piperazin-1-yl)-phenylamino]-6-fluoro-pyrido[2,3-d]pyrimidin-7-yl}-urea]
234 °C (dec.)	> 5000	> 5000	> 5000	> 5000	Cc1cc(NC(=O)NC2CCCC2)nc2nc(Nc3ccc(N4CCNCC4)cc3)ncc12 [Compound 53, 1-Cyclopentyl-3-[5-methyl-2-(4-piperazin-1-yl-phenylamino)-pyrido[2,3-d]pyrimidin-7-yl]-urea]
204 to 206 °C (dec.)	> 5000	> 5000	> 5000	> 5000	CNC(=O)Nc1cc(C)c2cnc(Nc3ccc(N4CCNCC4)cc3)nc2n1 [Compound 64, 1-Methyl-3-[5-methyl-2-(4-piperazin-1-yl-phenylamino)-pyrido[2,3-d]pyrimidin-7-yl]-urea]
177 °C (dec.)	> 5000	> 5000	> 5000	> 5000	CN(C(=O)Nc1ccc2cnc(Nc3ccc(N4CCNCC4)cc3)nc2n1)C1CCCCC1 [Compound 65, 1-Cyclohexyl-1-methyl-3-[2-(4-piperazin-1-yl-phenylamino)-pyrido[2,3-d]pyrimidin-7-yl]-urea]
228 to 230 °C (dec.)	> 5000	> 5000	> 5000	> 5000	Cc1cc(NS(=O)(=O)N(C)C)nc2nc(Nc3ccc(N4CCNCC4)cc3)ncc12 [Compound 71]
225 °C (dec.)	> 5000	1070	> 5000	> 5000	CC(C)(C)NC(=O)Nc1ccc2cnc(Nc3ccc(N4CCN(C(=O)OC(C)(C)C)CC4)cc3)nc2n1 [Compound 79, 4-{4-[7-(3-tert-Butyl-ureido)-pyrido[2,3-d]pyrimidin-2-ylamino]-phenyl}-piperazine-1-carboxylic acid tert-butyl ester]
183 °C (dec.)	3250	1560	2610	500	O=C(NCCCO)Nc1ccc2cnc(Nc3ccc(N4CCNCC4)cc3)nc2n1 [Compound 81, 1-(3-Hydroxy-propyl)-3-[2-(4-piperazin-1-yl-phenylamino)-pyrido[2,3-d]pyrimidin-7-yl]-urea]
185 °C (dec.)	315	305	399	55	CC(C)C[C@@H](CO)NC(=O)Nc1ccc2cnc(Nc3ccc(N4CCNCC4)cc3)nc2n1 [Compound 83, 1-((S)-1-Hydroxymethyl-3-methyl-butyl)-3-[2-(4-piperazin-1-yl-phenylamino)-pyrido[2,3-d]pyrimidin-7-yl]-urea]
200 °C (dec.)	> 5000	> 5000	> 5000	> 5000	CN1CCN(C(=O)Nc2ccc3cnc(Nc4ccc(N5CCNCC5)cc4)nc3n2)CC1 [Compound 84, 4-Methyl-piperazine-1-carboxylic acid [2-(4-piperazin-1-yl-phenylamino)-pyrido[2,3-d]pyrimidin-7-yl]-amide]
190 °C (dec.)	> 5000	> 5000	> 5000	> 5000	O=C(Nc1ccc2cnc(Nc3ccc(N4CCNCC4)cc3)nc2n1)N1CCOCC1 [Compound 85, Morpholine-4-carboxylic acid [2-(4-piperazin-1-yl-phenylamino)-pyrido[2,3-d]pyrimidin-7-yl]-amide]
190 °C (dec.)	> 5000	> 5000	> 5000	> 5000	CCCN(CCC)C(=O)Nc1ccc2cnc(Nc3ccc(N4CCNCC4)cc3)nc2n1 [Compound 86, 3-[2-(4-Piperazin-1-yl-phenylamino)-pyrido[2,3-d]pyrimidin-7-yl]-1,1-dipropyl urea]
220 °C (dec.)	> 5000	> 5000	> 5000	> 5000	O=C(Nc1ccc2cnc(Nc3ccc(N4CCNCC4)cc3)nc2n1)N1CCNCC1 [Compound 87, Piperazine-1-carboxylic acid [2-(4-piperazin-1-yl-phenylamino)-pyrido[2,3-d]pyrimidin-7-yl]-amide]
200 °C (dec.)	55	43	418	25	CC(C)[C@H](CO)NC(=O)Nc1ccc2cnc(Nc3ccc(N4CCNCC4)cc3)nc2n1 [Compound 88, 1-((R)-1-Hydroxymethyl-2-methyl-propyl)-3-[2-(4-piperazin-1-yl-phenylamino)-pyrido[2,3-d]pyrimidin-7-yl]-urea]
170 °C (dec.)	440	350	–	–	C[C@@H]1CN(c2ccc(Nc3ncc4ccc(N(C)C(=O)NC5CCCCC5)nc4n3)cc2)C[C@H](C)N1 [Compound 106, 3-Cyclohexyl-1-{2-[4-(cis-3,5-dimethyl-piperazin-1-yl)-phenylamino]-pyrido[2,3-d]pyrimidin-7-}-1-methyl-urea]

— patent US7053070B2, “Pyrido[2,3-d]pyrimidine-2,7-diamine kinase inhibitors” (Warner-Lambert Company, priority 2000, dated 2006)
